Source: patent US7498406B2, “Substantially cell membrane impermeable compound and use thereof” (priority 1999, dated 2009)

How the values were obtained:
BxPc3 = test: Viability of cultured cells, 72 hr; type: cell-based, human; conditions: 5% FCS, 0 to 1 mM
Experimental: (§1) FIG. 19. Effect of GSAO on proliferation of non-endothelial cells. 15,000 BxPC-3 (part A), HT1080 (part B), 3T3 (part C) or BVSM (part D) cells per well were seeded into gelatinised 24-well culture plates and allowed to attach for 24 hr. The media was then replaced with DMEM containing 0 to 1 mM GSAO or GSAA and either 5% BCS (part D) or 5% FCS (parts A, B and C). Cells were cultured for 72 hr and then dispersed and counted. The dotted lines indicate the cell number in control wells containing DMEM and 2% BCS (part D) or 2% FCS (parts A, B and C) which represented no to limited proliferation. The data points and errors represent the mean and range of duplicate wells.
(§2) BCE (Folkman et al. 1979), BAE, BxPC-3 (ATCC, Bethesda, Md.), HT1080 (Jiang et al., 1999), 3T3 (ATCC, Bethesda, Md.) and BVSM (Hogg et al., 1997) cells were harvested and cultured as indicated. […] Cells were cultured for 0 to 72 hr in 10% CO2 at 37° C. then dispersed in trypsin/EDTA (GibcoBRL, Granc Island, N.Y.), resuspended in Coulter balanced electrolyte solution and counted with a Z1 Coulter counter (Coulter Corp., Miami, Fla.) in all experiments there were two control wells containing DMEM with 1% GPS and either 5% BCS for BCE cells, 2% BCS for BAE and BVSM cells, or 2% FCS for BxPC-3, HT1080 and 3T3 cells. […]

HT1080 = test: Viability of cultured cells, 72 hr; type: cell-based, human; conditions: 5% FCS, 0 to 1 mM
Experimental: as §1, §2

Human bone marrow cells = test: 12 day human bone marrow culture assay, granulocyte/macrophage colonies; type: cell-based; conditions: 12 days, 0 to 100 μM
Experimental: FIG. 20. Effect of GSAO on proliferation of bone marrow progenitor cells. Human bone marrow cells were incubated in semi-solid agar containing 20% BGS, 1 ng per mL IL-3 and 0 to 100 μM GSAA or GSAO for 12 days. Granulocyte/macrophage colonies of 40 or more cells were counted under an inverted microscope. The data points and errors represent the mean and SE of quadruplicate cultures.
GSAO reduced the number of granulocyte/macrophage colonies in a 12 day human bone marrow culture assay with an IC50 of ˜30 μM (FIG. 20). […] Human bone marrow cells (˜5×10^5 cells per mL) were added to semi-solid agar in DMEM containing 20% BCS, […] IL-3 and 0 to 100 μM GSAA or GSAO. The cultures were incubated for 12 days at 37° C. and 5% CO2 and clusters of 40 or more cells were counted under an inverted microscope according to Metcalf (1977).

A3.01 cells = test: Cell number and cell viability in the HIVIIIB assay; type: cell-based, human
Experimental: FIG. 33. […] Cells were washed and incubated in complete medium at 5% CO2 and 37° C. for up to 10 days. […] B Concentration dependence of GSAO. […] Cells were washed, incubated in complete medium at 5% CO2 and 37° C. for 3 days and the conditioned medium collected and assayed for p24 antigen.
FIG. 34. Inhibition of HIVIIIB infection of A3.01 cells by GSAO.
A3.01 human T cells were exposed to GSAO for 30 minutes and then to HTLVIIIB virus for 2 hours after which the cells were washed and then cultured for up to 10 days. HTLVIIIB and A3.01 cells were obtained from the NIH AIDS Research and Reference Reagent Program, Rockville, Mass. Virus stocks were made and infectivity titer determined using A3.01 cells and the p24 antigen assay (Coulter, Miami, Fla.). A3.01 cells were cultured in RPMI medium containing 10% fetal calf serum. […] Cell numbers and cell viability were determined at the times specified by staining cells with trypan blue and counting using a Neubauer haemacytometer. Cell viability was measured as a percentage of live cells to total cells.

[1] = Stability of the trivalent arsenicals towards oxidation; type: physicochemical; conditions: slowed by removal of O2, lower pH or glycine
Text: This oxidation can be slowed in three ways; removal of dissolved O2 from solutions containing the arsenoxides, lowering the pH of these solutions, or by addition of glycine to the solutions. Glycine is routinely used to prevent oxidation of the stock solutions of the trivalent organoarsenicals. Similar to the reaction between 2,3-dimercaptopropanol and R—As(OH)2 in which a 5-membered dithioarsonite (XI) is formed, reaction of glycine with R—As(OH)2 is thought to give a 5-membered cyclic 1,3,2-oxazarsolidin-5-one (XII).

| Compound | Viability IC50 (BxPc3) | Viability IC50 (HT1080) | IC50 for reduction of the number of granulocyte/macrophage colonies (Human bone marrow cells) | effect on cell proliferation (A3.01 cells; 10 μM in the culture medium) | effect on cell viability (A3.01 cells; 10 μM in the culture medium) | effect on cell proliferation or cell viability (A3.01 cells; up to 100 μM, pre-incubation only) | stability of solutions towards oxidation [1] |
| --- | --- | --- | --- | --- | --- | --- | --- |
| N[C@@H](CCC(=O)N[C@@H](CSCC(=O)Nc1ccc([As](=O)(O)O)cc1)C(=O)NCC(=O)O)C(=O)O [GSAA, 4-(N-(S-glutathionylacetyl)amino)phenylarsonic acid, reference compound] | no significant effect | no significant effect | no effect on colony numbers |  |  |  |  |
| NC(CCC(=O)NC(CSCC(=O)Nc1ccc([As]=O)cc1)C(=O)NCC(=O)O)C(=O)O (stereo not shown) [GSAO, 4-(N-(S-glutathionylacetyl)amino)-phenylarsenoxide] |  |  |  | small inhibitory effect on cell proliferation | no effect on cell viability | no effect on cell proliferation or cell viability | deactivated over time by oxidation |
